From US20170197937A1, “NEW CRYSTAL FORM OF PANTOPRAZOLE SODIUM COMPOUND AND PREPARATION METHOD THEREFOR” (priority 2015, published 2017)
Structures can show the parent of a compound that is named as a salt.

Legend:
[1] = thermal stability test at 60° C. and 90% relative humidity; type: physicochemical; conditions: for change of polymorph, purity and appearance: 15 days at 60° C. and 90% relative humidity, sodium salt
Description: The feature of the crystalline form M of Pantoprazole Sodium compound provided in the present invention is free of any crystalline solvents, and the melting point of the novel crystalline form is 192±2° C., which is higher than those of traditional crystalline forms. […] The product of the novel crystalline form has higher bulk density and fluidity with an appearance of stubby rod. The crystalline product especially has greater advantages in the preparation of formulations of Pantoprazole Sodium tablets, powder and subsequent other forms of such processes, due to the increased stability, fluidity and bulk density. At the same time, the product has better qualities in the process of filtering, washing, drying, packaging and storage due to the improvement of the properties described above.
1 g of dried solid Pantoprazole Sodium was added to 20 mL of n-butanol and n-pentanol (1:1, in volume) to form a suspension, and then 0.005 g BHA was added to the suspension under stirring, the suspension was heated to […] to make all the solid dissolved; and 60 mL of cyclohexane was dropwise added to the solution at a speed of 0.12 ml/min under constant temperature to obtain a suspension; meanwhile, a ultrasonic wave with a frequency of 20 KHz, a power of 50 W was applied, followed by cooling the solution down to 0° C. at a rate of 0.2° C./min, continuing to stir for 1 h, vacuum filtrating the crystal slurry, and the residue was dried at 50° C. and under normal pressure for 48 h to constant weight, to obtain crystalline form M of Pantoprazole Sodium product. XRD pattern of the novel crystalline form M was shown in FIG. 1, comprising characteristic peaks (expressed in degrees 2θ) at 5.62, 11.62, 12.16, 13.80, 17.18, 18.80, 21.72, 23.44, 25.16 and 26.88. DSC thermogram of the novel crystalline form M was shown in FIG. 2, comprising an endothermic peak at 192.61° C. […] The product of the novel crystalline form M had higher bulk density and fluidity with an appearance of stubby rod, as shown in FIG. 3.

[2] = storage stability at normal temperature and air humidity; type: physicochemical; conditions: 100 days stored at normal temperature and air humidity
Description: XRD pattern of the novel crystalline form M was shown in FIG. 1, comprising characteristic peaks (expressed in degrees 2θ) at 5.62, 11.62, 12.16, 13.80, 17.18, 18.80, 21.72, 23.44, 25.16 and 26.88. DSC thermogram of the novel crystalline form M was shown in FIG. 2, comprising an endothermic peak at 192.61° C. […] The product of the novel crystalline form M had higher bulk density and fluidity with an appearance of stubby rod, as shown in FIG. 3.

Wistar rats = experiment: long-term toxicity test in rats (13 weeks)
Description: (§1) 15 Beagle dogs were used for acute toxicity test, and given different doses of Pantoprazole Sodium of 44, 67, 100, 150 and 225 mg/kg. 3 animals belongs to each group and toxic reactions were observed after administration in each group. […] The Pantoprazole Sodium was divided into 5, 3 and […] groups by high, medium and low doses. The test period is 13 weeks. 80 healthy Wistar rats with males and females half and half were randomly divided into four groups, and were gavaged once a day regularly, drug withdrawal 2 weeks after administration 13 weeks, and then taken conventional toxicology observations and index detection.

[3] = acute toxicity test in Beagle dogs; type: in vivo; conditions: dog, in vivo, doses 44-225 mg/kg
Description: as §1

Beagle dogs = experiment: acute toxicity test in Beagle dogs; type: in vivo; conditions: at the dose of 150 mg/kg
Description: as §1

in vivo = conditions: both, ICR, mouse, iv
Description: (§2) The median lethal dose method was taken for the acute toxicity test in mice. 50 ICR mice met experimental requirements were selected and randomly divided into 5 dose groups by weight, 10 animals each group with males and females half and half. […] Toxic reactions were observed during administration and after administration in mice.

ICR mice = conditions: intravenous injection
Description: as §2

[4] = cited from earlier work
[5] = toxic reaction tests (overall comparison); type: in vivo; conditions: versus existing Pantoprazole Sodium

COc1ccnc(C[S+]([O-])c2nc3cc(OC(F)F)ccc3[n]2[Na+])c1OC (stereo not drawn) [Example 3, 5-difluoromethoxy-2-[(3,4-dimethoxy-2-pyridinyl)methyl]sulfinyl-1H-benzimidazole sodium salt]
change of polymorph, purity and appearance [1]: did not make any change
change of polymorph, purity and color [2]: did not make any change

COc1ccnc(C[S+]([O-])c2nc3cc(OC(F)F)ccc3[n]2[Na+])c1OC (stereo not drawn) [Example 1, 5-difluoromethoxy-2-[(3,4-dimethoxy-2-pyridinyl)methyl]sulfinyl-1H-benzimidazole sodium salt]
toxicology observations and indexes, medium- and low-dose groups (Wistar rats; Wistar rats, gavage once a day, 13 weeks, 3 and 1 g/kg): no significant difference occurred
dose of nontoxic response (Wistar rats; both, Wistar, rat, in vivo, 13 weeks): 3000 mg/kg
histopathological examination (Wistar rats; rat, in vivo): liver cell degeneration occurred in one rat
indexes after drug withdrawal (Wistar rats; rat, in vivo): No obvious abnormality occurred
LD50 [3]: 70 mg/kg
toxic reactions (Beagle dogs): tremors, increased salivation, limp, vomiting, and death after 20 min
change of polymorph, purity and appearance [1]: did not make any change
LD50 (in vivo): 392 mg/kg
change of polymorph, purity and color [2]: did not make any change
toxic reactions during administration (ICR mice): struggling, shortness of breath, limbs limp, difficulty breathing, and severe to death

COc1ccnc(C[S+]([O-])c2nc3cc(OC(F)F)ccc3[n]2[Na+])c1OC (stereo not drawn) [Pantoprazole Sodium, 5-difluoromethoxy-2-[(3,4-dimethoxy-2-pyridinyl)methyl]sulfinyl-1H-benzimidazole sodium salt]
solubility in trichloromethane or ethyl ether ([4]; trichloromethane or ethyl ether): almost insoluble
solubility in water or methanol ([4]; water or methanol): soluble

COc1ccnc(C[S+]([O-])c2nc3cc(OC(F)F)ccc3[n]2[Na+])c1OC (stereo not drawn) [Example 4, 5-difluoromethoxy-2-[(3,4-dimethoxy-2-pyridinyl)methyl]sulfinyl-1H-benzimidazole sodium salt]
change of polymorph, purity and appearance [1]: did not make any change
change of polymorph, purity and color [2]: did not make any change

COc1ccnc(C[S+]([O-])c2nc3cc(OC(F)F)ccc3[n]2[Na+])c1OC (stereo not drawn) [Example 2, 5-difluoromethoxy-2-[(3,4-dimethoxy-2-pyridinyl)methyl]sulfinyl-1H-benzimidazole sodium salt]
change of polymorph, purity and appearance [1]: did not make any change
change of polymorph, purity and color [2]: did not make any change

COc1ccnc(C[S+]([O-])c2nc3cc(OC(F)F)ccc3[n]2[Na+])c1OC (stereo not drawn) [crystalline form M, 5-difluoromethoxy-2-[(3,4-dimethoxy-2-pyridinyl)methyl]sulfinyl-1H-benzimidazole sodium salt]
toxicity compared with existing Pantoprazole Sodium [5]: decreased toxicity
change of polymorph, purity and appearance [1]: do not changed
thermal stability ([1]; conclusion from 15 days at 60° C. and 90% relative humidity): better thermal stability
